As a reminder, the IC50 is the concentration that gives 50% inhibition.

In assay [1] the test system is OVA-induced asthmatic mice. The assay is described as follows: Lung histology (H&E) inflammation score in OVA-induced asthmatic mice. The following applies: 5 mg inhaled aerosol; vs OVA mice treated with vehicle. The class given is in vivo, BALB/c mice. As to the method:
(§1) Male BALB/c 6 week old mice were purchased from the Experimental Animal Center of Zhejiang University. All mice were raised in a specific pathogen-free animal facility. All animal experiments were carried out according to the guidelines for the care and use of laboratory animals and were approved by the ethics committee of Zhejiang University and Peking University, China.
(§2) Mice were sensitized and challenged with chicken egg OVA (sigma-Aldrich, St Louis, MO, USA) as described in details previously. Briefly, after sensitized by intraperitoneal injection of 100 μl (80 μg) OVA in 100 μl alum (Pierce, Rockford, IL, USA) on days 0 and 14, mice were exposure to 1% OVA aerosols for 40 min on days 24–26. Control mice were injected intraperitoneally with saline and exposed to saline aerosols.
(§3) Compound 8a was dissolved in saline with DMSO (0.5%). Half an hour before each OVA challenge, the groups of mice treated with various doses of compound 8a (0.2, 1, 5 mg) inhaled aerosolized compound 8a for 45 min on days 24–26. Compound 8a aerosols were produced by using a Plexiglas chamber and ultrasonic nebulizer. […]
(§4) After sacrificed, the lungs were fixed in formalin overnight. […] Inflammation was scored according to published guidelines. And PAS-stained goblet cells in airway epithelium were quantified as described previously.

In assay [2] the test system is OVA-induced asthmatic mice. The assay is described as follows: Airway mucus production (PAS staining) in OVA-induced asthmatic mice. In kind it is in vivo, BALB/c mice. The following applies: compound 8a 0.2, 1, 5 mg; budesonide 5 mg; vs vehicle treated group. As to the method: as §1, §2, §3, §4
Assay [3] has as its system IL-4. Briefly: IL-4 in lung homogenate by ELISA in OVA-induced asthmatic mice. As to conditions: 5 mg inhaled aerosol; after OVA challenge. In kind it is in vivo, BALB/c mice. As to the method: as §1, §2
Compound 8a was dissolved in saline with DMSO (0.5%). Half an hour before each OVA challenge, the groups of mice treated with various doses of compound 8a (0.2, 1, 5 mg) inhaled aerosolized compound 8a for 45 min on days 24–26. […]
Twenty-four hours after the last challenge, lungs were removed from control or asthmatic mice, and they were cut into pieces and homogenized in 500 μl PBS, centrifuged (2000 rpm, 10 min) and the supernatant collected. The concentration of IL-4 in lungs were determined by ELISA kit (Sensitivity: 2 pg/ml, R&D Systems, Minneap-olis, MN, USA) following the manufacturer’s protocol.
In general terms: An ELISA detects its analyte on a solid surface through an enzyme-linked reagent.

The test system of assay [4] is OVA-induced asthmatic mice. The assay is described as follows: BALF total cell and cell differential counts in OVA-induced asthmatic mice. In kind it is in vivo, BALB/c mice. As to the method: as §1, §2
(§5) Compound 8a was dissolved in saline with DMSO (0.5%). Half an hour before each OVA challenge, the groups of mice treated with various doses of compound 8a (0.2, 1, 5 mg) inhaled aerosolized compound 8a for 45 min on days 24–26. Compound 8a aerosols were produced by using a Plexiglas chamber and ultrasonic nebulizer. While the budesonide (BUD) group were administered with 5 mg budesonide, and the vehicle group were treated with compound-dissolved vehicle. The Saline was treated as the control.
Twenty-four hours after the last exposure, collection of BALF and cell count was performed as previously described. Briefly, lavage was performed by instilling 0.4 ml PBS into lungs and with drawn to collect the cells three times. Total BALF cells were counted. After be centrifuged, the remaining cells was spun onto glass slides, and stained with Wright–Giemsa stain. Differential counts were evaluated by counting 400 total cells.

Assay [5] has as its system OVA-induced asthmatic mice. Briefly: Airway hyperresponsiveness to aerosolized methacholine in OVA-induced asthmatic mice. As to conditions: 5 mg inhaled aerosol, days 24-26; 24 h after final OVA challenge. In kind it is in vivo, BALB/c mice. As to the method:
as §1, §2, §5
Twenty-four hours after the last challenge, mice were anesthetized and tracheotomized with a cannula, then ventilated at a fixed breathing rate. Once being stabilized, mice were challenged via the airways with saline or increasing concentrations of Mch (1, 2, 4, 8, 16 mg/ml) by nebulization. Airway resistance was measured by FinePointe Series RC Sites (Buxco Research System). Changes in airway resistance were calculated for each Mch concentration.

The target in assay [6] is T1, CCR4 (Homo sapiens, UniProt P51679).
T1 construct: expressed in transfected cells; cell membrane extract
T1 sequence (P51679 1-360): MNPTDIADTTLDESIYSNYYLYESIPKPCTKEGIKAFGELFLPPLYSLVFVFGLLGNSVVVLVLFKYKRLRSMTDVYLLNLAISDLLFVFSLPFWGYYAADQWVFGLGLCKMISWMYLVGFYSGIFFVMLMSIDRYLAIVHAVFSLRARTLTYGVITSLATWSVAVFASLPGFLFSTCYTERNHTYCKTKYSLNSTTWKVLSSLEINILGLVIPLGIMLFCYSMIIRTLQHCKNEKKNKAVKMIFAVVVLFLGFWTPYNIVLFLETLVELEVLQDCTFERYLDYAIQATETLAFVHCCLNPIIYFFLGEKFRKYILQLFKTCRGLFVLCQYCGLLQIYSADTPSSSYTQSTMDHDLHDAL
The assay is described as follows: Radio ligand competition binding assay on CCR4 cell membrane extract. The following applies: HEK293 CCR4 cell membrane extract, 4 °C, 24 h. As to the method:
A HEK293 cell line stably expressing CCR4-enhanced green fluorescent protein was established. CCL22, CCL17 and C27 were labeled with [^125I]. For competition binding assays, equivalent quantities of cell membrane extract and [^125I]-CCL22, [^125I]-CCL17 and [^125I]-C27 were incubated with varying quantities of unlabeled compound 8a, compound 6b and compound 22. All reactions were incubated at 4 °C for 24 h. After the binding step, 25% polyethylene glycol (6000–8000) and 0.5% human g-globulin were added, and the mixture was incubated at room temperature for 15 min. Binding complexes were obtained by centrifuging the mixture at 3500 rpm for 20 min at 4 °C, and radioactivity was evaluated. Results were corrected for “blank” background radiation, defined as the radioactivity precipitated by polyethylene glycol–g-globulin from the same amount of radioactive ligand in binding buffer in the absence of cells.

The mark [7] stands for this setting: 5 mg inhaled aerosol, compared with vehicle treated group.
The mark [8] stands for this setting: compound 8a 0.2, 1, 5 mg, budesonide 5 mg, inhaled aerosol.

Read-outs that look alike come from different tables or passages of the source.

Consider `CCCC1O[C@@H]2C[C@H]3[C@@H]4CCC5=CC(=O)C=C[C@]5(C)[C@H]4[C@@H](O)C[C@]3(C)[C@]2(C(=O)CO)O1` (some centres unmarked) [budesonide, reference compound], for which, in assay [1], the “peribronchial and perivascular inflammation (H&E histology)” value was “significantly attenuated”. The “airway mucus production (PAS-stained cells)” value in assay [2] is on record as “no effect”. Moreover, in assay [3], the “expression of IL-4 in lungs (ELISA)” value is “notably decreased”. In addition, in assay [4] (setting [7]), the “absolute number of eosinophils in BALF” value was “significantly decreased” and the “absolute number of lymphocytes in BALF” value was “significantly decreased”. For the same molecule, in assay [4] (setting [8]), the “number of macrophages in BALF” value is given as “neither compound 8a nor budesonide affect” and the “number of neutrophils in BALF” value is reported as “neither compound 8a nor budesonide affect”. Also, the “AHR to methacholine compared with asthmatic mice treated with vehicle” value in assay [5] was “significantly lower”.

For the molecule `O=C([C@@H]1CSCCN1)N1CCN(c2nc(NCc3ccc(Cl)cc3Cl)c3cccnc3n2)CC1` [compound 6b, reference compound], the half-maximal inhibitory concentration (IC50) in assay [6] ([125I]-C27, read-out: IC50, competitive binding with C27 to CCR4) worked out at 489 nM; in assay [6] ([125I]-CCL17, read-out: IC50, competitive binding with CCL17 to CCR4) it was 104 nM; in assay [6] ([125I]-CCL22, read-out: IC50, competitive binding with CCL22 to CCR4) it was 360 nM.

(Values after paper PMC5678437, “A new antagonist for CCR4 attenuates allergic lung inflammation in a mouse model of asthma” (Scientific Reports, 2017).)
